Measurements as given in US8268961B2, “Antibacterial peptides and analogues thereof” (Universita Degli Studi di Siena, priority 2004, dated 2012).
Where two headings read alike, the source gives them in different places. Positions of bridges follow the written chain, without caps; N, C: chain ends. Residues, ends and D or L forms follow the SMILES beside them. Chains are numbered I, II in the order given. No end group written: not given here.

Columns and labels:
[1] = test system: Escherichia coli ATCC 25922; format: cell-based
Source text: (§1) MIC is defined as the lowest concentration, in an antibiotic dilution range, that inhibits visible bacterial growth. The importance of MIC sensitivity test is based on the principle that in vitro sensitivity provides a predictive indication of the in vivo efficacy of the antibiotic therapy. Values are expressed as molar concentration and compared to MIC values obtained with commercially available antibiotics such as amikacin, ceftriaxone and levofloxacin (Table 3).
(§2) Reference strains (Escherichia coli ATCC 25922, Pseudomonas aeruginosa ATCC 27853, Staphylococus aureus ATCC 25923 and Chryseobacterium meningosepticum CCUG 4310) and several recent clinical isolates (including multidrug-resistant ones) of various species (Table 2) were used for conventional susceptibility testing experiments. Minimum Inhibitory Concentration (MIC) was determined by a standard microdilution assay as recommended by the National Commitee for Clinical Laboratory Standards (NCCLS) using cation-supplemented Mueller-Hinton (MH) broth (Oxoid Ltd. Basingstoke, UK) and a bacterial inoculum of 5×10^4 CFU per well, in a final volume of 100 μl. Results were recorded by visual inspection after 24 h of incubation at 37° C.

[2] = test system: Pseudomonas aeruginosa ATCC27853; format: cell-based
Source text: as §1, §2

[3] = test system: Staphylococcus aureus ATCC 25923; format: cell-based; conditions: Staphylococcus aureus ATCC 25923, reference strain
Source text: as §1, §2

E. coli strain TG1 = assay: Test of antibacterial activity (colony growth inhibition) on E. coli strain TG1; format: cell-based; conditions: E. coli TG1, colony counting vs control without peptide
Procedure: The antimicrobic activity of the peptides in linear form (L1, L4, L5, L6) and in MAP form (M1, M4, M5, M6) was assayed on the TG1 strain of E. coli. The peptides were incubated at various concentrations (2-1-0.5-0.25-0.12 mg/ml) with cells of E. coli (OD600=0.2) for about 1 hour at 37° C. Subsequently, the cells were plated on agar at dilution such to allow counting of individual colonies. The antimicrobic activity of the synthesised peptide L 1 and M1 is shown FIG. 1 and is compared to a non correlated MAP peptide (MNC) used as negative control.
In one example, the tetrabranched MAP peptides with the amino acid sequence: QAKIRVRLSA [SEQ ID NO: 2], KIRVRLSA [SEQ ID NO: 3], QKKIRVRLSA [SEQ ID NO: 4] are used individually in a bacterial colony growth inhibition test. The test is conducted by incubating different concentrations of MAP peptides with E. coli (strain TG1) and plating bacterial cells on agar at a dilution such to allow for individual colonies counting. The following day, the number of colonies grown after treatment with the three MAP peptides is compared.
Antimicrobic tests were conducted incubating for 75 min at 37° C., 25 μL of E. coli at the OD600 of 0.2 with 25 μl of MAP peptide dissolved in PBS at the various concentrations. The different incubations were further diluted 1:1000 in 2×TY medium and 100 μl were plated on solid 2×TY medium. The plates were left overnight at 30° C. and the individual grown colonies were counted and compared with a control, not treated with MAP peptide.

[4] = Stability to plasmatic protease (HPLC); format: in vitro ADME, human
Procedure: Since the use of peptides as therapeutic agents is severely limited by their in vivo half-life, the stability to human serum protease of the linear peptide L1 and of the MAP peptides M1, M4, M5 and M6 was evaluated. The peptides were incubated at the concentration of 10 mM with plasma and with human serum for 2 and 24 hours; the samples were subsequently analysed in HPLC on column C18 (see materials and methods) to evaluate the presence of linear and MAP peptide not digested by the protease.
The various peptides in MAP form and the linear peptide (L1) were dissolved in H2O at the concentration of 10 mM and incubated with 10 μl of plasma and human serum for 2 and 24 hours at 37° C. To each sample were added 150 μl of methanol to block the proteolytic reaction; each sample was then centrifuged at 13,000 rpm for 2 min and to the supernatant were added 0.75 ml of 0.1% trifluoroacetic acid. The samples were analysed in reverse phase HPLC on a Vydac C18 semi-preparative column using a 30 min gradient of buffer B from 20% to 95% (buffer A: 0.1% trifluoroacetic acid/water; buffer B: 0.1% trifluoroacetic acid/methanol), to evaluate the presence of linear and MAP peptide after the proteolytic treatment.

[5] = test system: E. coli plasmid vector pCEP4 DNA; assay: DNA binding assay (gel retardation); conditions: 200 ng pCEP4, 1% agarose gel, 1 h room temperature
Procedure: In an attempt to clarify the molecular mechanism of action, the authors examined the binding properties on DNA exerted by M6 dendrimeric peptide and magainin 2, an antimicrobial peptide which has a pore-forming activity on the cell membrane. The DNA binding abilities of M6 and magainin 2 were examined by analyzing the electrophoretic mobility of DNA bands at the various weight ratios of peptides to DNA on a 1% (w/v) agarose gel.
Gel-retardation experiments were performed by mixing 200 ng of the E. coli plasmid vector pCEP4 (Invitrogen) with increasing amounts of M6 peptide in 20 μl of binding buffer (5% glycerol, 10 mM Tris-HCl (pH 8.0), 1 mM EDTA, 1 mM DTT, 20 mM KCl and 50 μg/ml BSA). The reaction mixtures were incubated at room temperature for 1 h. Subsequently, 4 μl of native loading buffer was added (40% saccarose, 0.25% bromophenol blue) and an aliquot of 12 μl was applied to a 1% agarose gel electrophoresis in 1 mM Tris borate-EDTA buffer.

[6] = Escherichia coli ATCC 25922, reference strain
[7] = Pseudomonas aeruginosa ATCC27853, reference strain

Row | Compound | MIC (Molarity) [1, 6] [µM] | MIC (Molarity) [2, 7] [µM] | MIC (Molarity) [3] [µM] | MIC (Molarity) ([1]; ATCC 25922) [µM] | MIC (Molarity) ([2]; ATCC27853) [µM] | other results
1 | NCC[C@H](O)C(=O)N[C@@H]1C[C@H](N)[C@@H](O[C@H]2O[C@H](CN)[C@@H](O)[C@H](O)[C@H]2O)[C@H](O)[C@H]1O[C@H]1O[C@H](CO)[C@@H](O)[C@H](N)[C@H]1O [AMIKACIN, amikacin, reference compound] | 1.7 to 6.8 | 1.7 to 6.8 | 0.85 to 6.8 |  |  | 
2 | CO/N=C(\C(=O)N[C@@H]1C(=O)N2C(C(=O)O)=C(CSc3nc(=O)c(=O)[nH]n3C)CS[C@H]12)c1csc(N)n1 [CEFTRIAXONE, ceftriaxone, reference compound] | 14 to 110 | 1.7 to 14 | 0.054 to 0.21 |  |  | 
3 | CC[C@H](C)[C@H](NC(=O)[C@H](CCCCN)NC(=O)[C@H](CCC(=O)O)NC(=O)[C@@H](N)CCC(N)=O)C(=O)N[C@@H](CCCNC(=N)N)C(=O)N[C@H](C(=O)N[C@@H](CCCNC(=N)N)C(=O)N[C@@H](CC(C)C)C(=O)N[C@@H](CO)C(=O)N[C@@H](C)C(N)=O)C(C)C [L1, QEKIRVRLSA] (H-QEKIRVRLSA-NH2; N-terminus assumed) |  |  |  |  |  | Antibacterial activity on E. coli TG1 colony growth (E. coli strain TG1): inhibited significantly; Resistance to plasmatic protease: Plasma 2 h [4]: +; Resistance to plasmatic protease: Plasma 24 h [4]: −
4 | C[C@H]1COc2c(N3CCN(C)CC3)c(F)cc3c(=O)c(C(=O)O)cn1c23 [LEVOFLOXACIN, levofloxacin, reference compound] | 1.3 to 11 | 0.16 to 1.3 | 0.022 to 16 |  |  | 
5 | I: AKKIRVRLSAKKA-OH / II: AKKIRVRLSAK / III: AKKIRVRLSA / IV: AKKIRVRLSA (amide I:11-IV:C, I:12-II:C, II:11-III:C) [M31] |  |  | >12 | 3 | 3 | 
6 | I: QKAIRVRLSAKKA-OH / II: QKAIRVRLSAK / III: QKAIRVRLSA / IV: QKAIRVRLSA (amide I:11-IV:C, I:12-II:C, II:11-III:C) [M33, QKAIRVRLSA] | 1.5 | 1.5 | >12 |  |  | 
7 | I: QKKARVRLSAKKA-OH / II: QKKARVRLSAK / III: QKKARVRLSA / IV: QKKARVRLSA (amide I:11-IV:C, I:12-II:C, II:11-III:C) [M34, QKKARVRLSA] | >12 |  | >12 |  | 12 | 
8 | I: QKKIAVRLSAKKA-OH / II: QKKIAVRLSAK / III: QKKIAVRLSA / IV: QKKIAVRLSA (amide I:11-IV:C, I:12-II:C, II:11-III:C) [M35, QKKIAVRLSA] |  |  | >12 | 6 | 1.5 | 
9 | I: QKKIRVALSAKKA-OH / II: QKKIRVALSAK / III: QKKIRVALSA / IV: QKKIRVALSA (amide I:11-IV:C, I:12-II:C, II:11-III:C) [M37] |  |  | >12 | 3 | 3 | 
10 | I: QKKIRVRLAAKKA-OH / II: QKKIRVRLAAK / III: QKKIRVRLAA / IV: QKKIRVRLAA (amide I:11-IV:C, I:12-II:C, II:11-III:C) [M39, QKKIRVRLAA] |  |  | >12 | 3 | 3 | 
11 | I: QKRIRVRLSAKKA-OH / II: QKRIRVRLSAK / III: QKRIRVRLSA / IV: QKRIRVRLSA (amide I:11-IV:C, I:12-II:C, II:11-III:C) [M29, QKRIRVRLSA] |  |  | >12 | 6 | 6 | 
12 | I: QRKIRVRLSAKKA-OH / II: QRKIRVRLSAK / III: QRKIRVRLSA / IV: QRKIRVRLSA (amide I:11-IV:C, I:12-II:C, II:11-III:C) [M28] | 0.38 | 0.76 | >12 |  |  | 
13 | I: QRRIRVRLSAKKA-OH / II: QRRIRVRLSAK / III: QRRIRVRLSA / IV: QRRIRVRLSA (amide I:11-IV:C, I:12-II:C, II:11-III:C) [M30, QRRIRVRLSA] |  |  | >12 | 3 | 12 | 
14 | QKKIRARLSA [M36] | >12 | >12 | >12 |  |  | 
15 | QKKIRVRASA [M38] | >12 | >12 | >12 |  |  | 
16 | magainin 2 [reference compound] |  |  |  |  |  | Weight ratio of peptide to DNA at which migration of DNA is inhibited [5]: 5
